Results on 19 molecules are retold here after US8067619B2, “Coumarin derivatives as ion channel openers” (Janssen Pharmaceutica N.V., priority 2005, dated 2011).

pEC50: −log10 of the molar value.

For orientation: pEC50 means the negative decadic logarithm of the EC50, by convention in mol/L.

This assay deals with T1, KATP channels (Homo sapiens, UniProt O60706+Q14654).
T1 construct: TE671 human medulloblastoma cells were obtained from ATCC; host or cells: TE671 human medulloblastoma cells
T1 sequence (O60706 1-1549 isoform O60706-2): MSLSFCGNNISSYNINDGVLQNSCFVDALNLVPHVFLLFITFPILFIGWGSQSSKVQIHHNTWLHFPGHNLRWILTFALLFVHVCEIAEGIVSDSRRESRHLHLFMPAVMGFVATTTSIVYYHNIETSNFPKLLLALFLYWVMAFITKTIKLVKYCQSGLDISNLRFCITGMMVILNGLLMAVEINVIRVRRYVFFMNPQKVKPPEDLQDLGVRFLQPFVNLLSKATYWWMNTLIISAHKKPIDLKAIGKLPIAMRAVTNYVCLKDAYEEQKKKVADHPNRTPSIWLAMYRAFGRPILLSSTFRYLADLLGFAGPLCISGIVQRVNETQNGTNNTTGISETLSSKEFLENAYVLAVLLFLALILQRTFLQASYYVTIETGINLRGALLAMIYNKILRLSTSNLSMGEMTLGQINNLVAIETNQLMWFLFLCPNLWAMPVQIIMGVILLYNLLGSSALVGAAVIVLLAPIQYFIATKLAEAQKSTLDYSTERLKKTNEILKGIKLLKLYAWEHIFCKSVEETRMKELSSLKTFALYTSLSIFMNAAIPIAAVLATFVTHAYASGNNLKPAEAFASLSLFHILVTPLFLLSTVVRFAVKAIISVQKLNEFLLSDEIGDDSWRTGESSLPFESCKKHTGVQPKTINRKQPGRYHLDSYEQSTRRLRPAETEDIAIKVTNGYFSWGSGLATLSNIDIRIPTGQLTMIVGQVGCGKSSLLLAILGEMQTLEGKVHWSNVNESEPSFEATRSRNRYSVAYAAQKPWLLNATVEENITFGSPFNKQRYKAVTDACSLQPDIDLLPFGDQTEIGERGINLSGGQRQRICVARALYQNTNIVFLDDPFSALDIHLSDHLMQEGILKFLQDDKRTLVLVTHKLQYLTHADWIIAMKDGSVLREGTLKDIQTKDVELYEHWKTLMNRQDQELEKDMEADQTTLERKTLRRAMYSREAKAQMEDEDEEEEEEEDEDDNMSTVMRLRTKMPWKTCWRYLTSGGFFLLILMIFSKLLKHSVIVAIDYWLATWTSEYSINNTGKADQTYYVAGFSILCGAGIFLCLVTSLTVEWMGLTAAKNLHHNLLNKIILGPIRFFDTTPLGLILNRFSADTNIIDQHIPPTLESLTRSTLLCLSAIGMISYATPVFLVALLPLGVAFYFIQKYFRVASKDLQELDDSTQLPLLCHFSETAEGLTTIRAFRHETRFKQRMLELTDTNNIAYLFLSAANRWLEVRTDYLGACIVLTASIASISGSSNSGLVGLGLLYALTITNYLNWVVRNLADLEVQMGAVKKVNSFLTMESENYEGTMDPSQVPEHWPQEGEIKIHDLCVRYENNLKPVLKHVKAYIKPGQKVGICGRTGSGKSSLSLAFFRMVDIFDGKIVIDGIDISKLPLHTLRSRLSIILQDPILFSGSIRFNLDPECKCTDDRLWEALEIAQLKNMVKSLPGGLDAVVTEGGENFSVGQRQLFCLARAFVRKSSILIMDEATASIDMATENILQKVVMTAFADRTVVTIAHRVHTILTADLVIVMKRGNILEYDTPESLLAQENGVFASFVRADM
T1 sequence (Q14654 whole entry): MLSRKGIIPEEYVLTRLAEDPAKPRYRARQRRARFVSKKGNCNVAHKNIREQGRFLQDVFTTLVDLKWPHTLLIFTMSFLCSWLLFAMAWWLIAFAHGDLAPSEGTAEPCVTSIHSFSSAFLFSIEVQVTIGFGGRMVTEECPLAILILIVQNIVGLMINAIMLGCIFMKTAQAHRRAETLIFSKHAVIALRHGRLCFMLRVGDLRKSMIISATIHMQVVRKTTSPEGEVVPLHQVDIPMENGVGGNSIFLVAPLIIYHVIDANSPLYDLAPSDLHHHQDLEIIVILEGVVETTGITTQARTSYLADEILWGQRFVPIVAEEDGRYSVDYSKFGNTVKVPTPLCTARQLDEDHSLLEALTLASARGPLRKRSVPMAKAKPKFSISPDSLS
Kind of assay: Potassium Channel Assay (FLIPR membrane potential, TE671 cells). Format: cell-based. Particulars: TE671 human medulloblastoma cells, Membrane Potential Assay Dye, room temperature, hyperpolarization from KATP channel opening seen as decrease in fluorescent intensity. The procedure: TE671 human medulloblastoma cells were obtained from ATCC and grown in Dulbecco's modified Eagle's medium (DMEM) supplemented with 10% fetal bovine serum, 100 U/ml penicillin and 100 U/ml streptomycine.
The day before testing, the cells were plated in black 96-well plates at 50K/well. On the day of testing, the growth media was removed, then 100 μl of FLIPR buffer (20 mM HEPES, 120 mM NaCl, 2 mM KCl, 2 mM CaCl2, 1 mM MgCl2, 5 mM Glucose) and 100 μl of Membrane Potential Assay Dye (Molecular Devices) dissolved in FLIPR buffer were added to each well. The cells were incubated at room temperature for 15 to 30 min.
The effect of test compounds on KATP channels were evaluated on a fluorometric imaging plate reader (FLIPR, Molecular Devices) at room temperature. After a baseline period, 50 μl of 5× stock solution of test compound prepared in FLIPR buffer was added and fluorescent change was monitored for 3 minutes. After this reading, glyburide, a KATP channel blocker, was added to a final concentration of 5 μM to check the specificity of the test compound as a KATP channel openers. Hyperpolarization resulting from KATP channel opening was observed as a decrease in fluorescent intensity.
Regarding `COCCc1c(-c2ccc(OC)cc2OC)c(=O)oc2cc(OS(=O)(=O)C(F)(F)F)ccc12` [Compound 2, Trifluoro-methanesulfonic acid 3-(2,4-dimethoxy-phenyl)-4-(2-methoxy-ethyl)-2-oxo-2H-chromen-7-yl ester], the pEC50 is 5.02.
As for `Cc1c(C(=O)c2ccc(Cl)cc2)c(=O)oc2cc(C#N)ccc12` [Compound 3, 3-(4-Chloro-benzoyl)-4-methyl-2-oxo-2H-chromene-7-carbonitrile], the figure is below 4.52; as for `N#Cc1ccc2c(CC(=O)c3ccc(Cl)cc3)cc(=O)oc2c1` [Compound 4, 4-[2-(4-Chloro-phenyl)-2-oxo-ethyl]-2-oxo-2H-chromene-7-carbonitrile], 4.80.
Molecule `COCCc1c(-c2ccc(OC)cc2OC)c(=O)oc2cc(C#N)ccc12` [Compound 6, 3-(2,4-Dimethoxy-phenyl)-4-(2-methoxy-ethyl)-2-oxo-2H-chromene-7-carbonitrile] showed a pEC50 below 4.52.
`O=c1oc2cc(OS(=O)(=O)C(F)(F)F)ccc2c(CCO)c1-c1ccc(O)cc1O` [Compound 7, Trifluoro-methanesulfonic acid 3-(2,4-dihydroxy-phenyl)-4-(2-hydroxy-ethyl)-2-oxo-2H-chromen-7-yl ester] gave a pEC50 of 4.71.
The molecule `N#Cc1ccc2c(CCO)c(-c3ccc(O)cc3O)c(=O)oc2c1` [Compound 8, 3-(2,4-Dihydroxy-phenyl)-4-(2-hydroxy-ethyl)-2-oxo-2H-chromene-7-carbonitrile] had a pEC50 of 4.63.
In turn, `C=Cc1c(-c2ccc(O)cc2O)c(=O)oc2cc(C#N)ccc12` [Compound 9, 3-(2,4-Dihydroxy-phenyl)-2-oxo-4-vinyl-2H-chromene-7-carbonitrile] gave a pEC50 of 5.48. Against the preceding molecule, the pEC50 is 0.85 log units higher.
With `C=Cc1c(-c2ccc(C#N)cc2O)c(=O)oc2cc(F)ccc12` [Compound 11, 44-(7-Fluoro-2-oxo-4-vinyl-2H-chromen-3-yl)-3-hydroxy-benzonitrile], the pEC50 is below 4.52.
To `O=c1cc(CC(O)c2ccc(Cl)cc2Cl)c2ccc(OS(=O)(=O)C(F)(F)F)cc2o1` (stereo not shown) [Compound 12, Trifluoro-methanesulfonic acid 4-[2-(2,4-dichloro-phenyl)-2-hydroxy-ethyl]-2-oxo-2H-chromen-7-yl ester] belongs 5.18.
On to `O=C(Cc1cc(=O)oc2cc(OS(=O)(=O)C(F)(F)F)ccc12)Nc1c(Cl)cc(Cl)cc1Cl` [Compound 13, Trifluoro-methanesulfonic acid 2-oxo-4-[(2,4,6-trichloro-phenylcarbamoyl)-methyl]-2H-chromen-7-yl ester], for which the pEC50 is 5.06. The pEC50 values of the last two molecules are within 0.2 log units of each other.
For `N#Cc1ccc2c(CC(O)c3ccc(Cl)cc3Cl)cc(=O)oc2c1` (stereo not shown) [Compound 14, 4-[2-(2,4-Dichloro-phenyl)-2-hydroxy-ethyl]-2-oxo-2H-chromene-7-carbonitrile], the pEC50 was below 4.52.
As for `N#Cc1ccc2c(CC(=O)Nc3ccc(F)cc3F)cc(=O)oc2c1` [Compound 15, 2-(7-Cyano-2-oxo-2H-chromen-4-yl)-N-(2,4-difluoro-phenyl)-acetamide], the figure is 4.86.
`N#Cc1ccc2c(CC(=O)Nc3ccccc3F)cc(=O)oc2c1` [Compound 16, 2-(7-Cyano-2-oxo-2H-chromen-4-yl)-N-(2-fluoro-phenyl)-acetamide] had a pEC50 of 5.42.
Consider `N#Cc1ccc2c(CC(=O)Nc3ccccc3Cl)cc(=O)oc2c1` [Compound 17, N-(2-Chloro-phenyl)-2-(7-cyano-2-oxo-2H-chromen-4-yl)-acetamide], for which the pEC50 was 4.71.
`N#Cc1ccc2c(CC(=O)Nc3cccc(Cl)c3)cc(=O)oc2c1` [Compound 18, N-(3-Chloro-phenyl)-2-(7-cyano-2-oxo-2H-chromen-4-yl)-acetamide]: the pEC50 is 5.11.
For the molecule `N#Cc1ccc2c(CC(=O)Nc3cccc(Cl)c3Cl)cc(=O)oc2c1` [Compound 19, 2-(7-Cyano-2-oxo-2H-chromen-4-yl)-N-(2,3-dichloro-phenyl)-acetamide], the pEC50 is 4.97.
To `N#Cc1ccc2oc(=O)cc(CC(O)c3ccc(Cl)cc3Cl)c2c1` (stereo not shown) [Compound 20, 4-[2-(2,4-Dichloro-phenyl)-2-hydroxy-ethyl]-2-oxo-2H-chromene-6-carbonitrile] belongs below 4.52.
In the case of `N#Cc1ccc2oc(=O)cc(CC(=O)c3cccc(Cl)c3)c2c1` [Compound 21, 4-[2-(3-Chloro-phenyl)-2-oxo-ethyl]-2-oxo-2H-chromene-6-carbonitrile], the negative-log EC50 (pEC50) was below 4.52.
For the molecule `O=C(Cc1cc(=O)oc2ccc(OS(=O)(=O)C(F)(F)F)cc12)c1cccc(Cl)c1` [Compound 22, Trifluoro-methanesulfonic acid 4-[2-(3-chloro-phenyl)-2-oxo-ethyl]-2-oxo-2H-chromen-6-yl ester], the pEC50 is 4.70.
